In publication PMC6286365 (Scientific Reports, 2018):

Legend:
acid sphingomyelinase = biological target: T1, acid sphingomyelinase (Homo sapiens, UniProt P17405); assay: Acid sphingomyelinase inhibition (results not shown); assay type: biochemical
T1 sequence (P17405 47-631): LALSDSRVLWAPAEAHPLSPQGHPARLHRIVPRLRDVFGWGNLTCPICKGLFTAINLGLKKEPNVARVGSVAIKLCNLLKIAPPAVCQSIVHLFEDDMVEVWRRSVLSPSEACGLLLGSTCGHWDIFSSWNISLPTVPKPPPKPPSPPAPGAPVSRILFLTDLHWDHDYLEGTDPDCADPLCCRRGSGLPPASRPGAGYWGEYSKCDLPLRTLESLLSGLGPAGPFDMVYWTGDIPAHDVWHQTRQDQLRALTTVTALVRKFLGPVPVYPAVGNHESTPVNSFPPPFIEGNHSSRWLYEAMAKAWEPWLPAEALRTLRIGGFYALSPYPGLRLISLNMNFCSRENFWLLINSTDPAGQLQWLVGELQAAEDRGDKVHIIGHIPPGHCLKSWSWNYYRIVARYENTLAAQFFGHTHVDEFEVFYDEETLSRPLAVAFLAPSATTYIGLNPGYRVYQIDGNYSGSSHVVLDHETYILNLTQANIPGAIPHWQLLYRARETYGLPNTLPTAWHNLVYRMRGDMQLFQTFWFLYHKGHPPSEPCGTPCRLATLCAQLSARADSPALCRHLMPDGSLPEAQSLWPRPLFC

[1] = Metabolic stability in mouse liver microsomes with NADPH; assay type: in vitro ADME; settings: pH 7.4, 1 μM compound, read-out: percent remaining
Method: One potential liability when using chemical probes in vivo is lack of metabolic stability which structurally inactivates the compound before it can reach its molecular target. […] Percent of drug remaining over time was determined by liquid chromatography–tandem mass spectrometry analysis (LC/MS/MS).
Metabolic stability assay was conducted in mouse or human liver microsomes as we have described previously with minor modifications. Briefly, the reaction was carried out using potassium phosphate buffer (100 mM, pH 7.4), in the presence of an NADPH regenerating system (compound final concentration was 1 μM; 0.2 mg/mL microsomes). Compound disappearance was monitored over time using a liquid chromatography and tandem mass spectrometry (LC/MS/MS) method. Chromatographic analysis was performed using an Accela ultra high-performance system consisting of an analytical pump and an autosampler coupled with a TSQ Vantage mass spectrometer (Thermo Fisher Scientific Inc., Waltham, MA). […] The mobile phase consisted of 0.1% formic acid in acetonitrile and 0.1% formic acid in water with gradient elution.

[2] = In vivo pharmacokinetics, plasma and brain, 10 mg/kg IP; settings: male, CD1, mouse, mice
Method: Pharmacokinetic studies in mice were approved by the Animal Care and Use Committee at Johns Hopkins University. Male CD1 mice between 25 and 30 g were obtained from Harlan and maintained on a 12 h light−dark cycle with ad libitum access to food and water. Test compounds were dosed at 10 mg/kg IP at a dosing volume of 10 mL/kg. Blood and brain tissue were collected at 0.25, 0.5, 1, 2, 4 and 6 h post dose (n = 3 per time point). Blood was obtained via cardiac puncture and plasma was harvested from blood by centrifugation at 3000 × g for 15 min and stored at −80 °C. Brain tissues were harvested following blood collection and immediately snap frozen in liquid nitrogen and stored at −80 °C until LC−MS analysis. […] The samples were vortex mixed for 30 secs and centrifuged at 10000 × g for 10 min at 4 °C. Fifty microliter of the supernatant was diluted with 50 µL water and transferred to a 250 µL polypropylene vial sealed with a Teflon cap and analyzed via LC/MS/MS as described above. Plasma concentrations (pmol/mL) as well as tissue concentrations (pmol/g) were determined and plots of mean plasma concentration versus time were constructed for PK analysis. Non-compartmental-analysis modules in Phoenix WinNonlin version 7.0 (Certara USA, Inc., Princeton, NJ) were used to assess pharmacokinetic parameters including maximal concentration (Cmax), time to Cmax (Tmax), and area under the curve extrapolated to infinity (AUC0-∞).

Rat primary astrocytes = assay: Astrocyte activation, GFAP immunofluorescence (+/-) serum deprivation; assay type: cell-based; settings: 10 μM, 2 h
Method: Independent laboratories have shown that pharmacological and genetic inhibition of nSMase2 blocks EV secretion from glial cells. […] Two hours after treatment, EVs were isolated from the media and quantified by nanoparticle tracking analysis. […] Cells were fixed and immunofluorescence labeling for GFAP was performed.
Media was collected after 2 h incubation and centrifuged at 2700 × g for 15 min at 4 °C. Supernatant was collected and the number of extracellular vesicles (EVs) was quantified using ZetaView Nanoparticle Tracker. The mean concentration of EVs/mL (±SEM) was calculated from 4 replicate experiments. […] Astrocytes grown in complete medium were used as no treatment control. Cells were fixed and stained with anti-GFAP antibody (1:500, Sigma). Fluorescence intensity was measured using Image J. (C) Quantitation of fluorescence in (B). Bar graph represents background corrected mean fluorescence intensity measured from 100 astrocytes per condition. Error bars represent standard error of mean. One-way ANOVA followed by Tukey’s posthoc test was performed.

GFAP-GFP mice = assay: Striatal IL-1β brain inflammation model: neutrophil infiltration into brain (Ly6b immunohistochemistry); assay type: in vivo, mouse; settings: 10 mg/kg IP 0.5 h before and 12 h after IL-1β; 24 h
Method: As we have previously shown[11],[18], striatal injection of IL-1β in mice expressing GFP-GFAP in astroglia triggers a release of GFP-labelled EVs that rapidly enter into plasma, resulting in cytokine upregulation in liver and peripheral immune cell migration into brain[11]. […] There were two groups of mice: the first group was sacrificed 2 h after IL-1β administration by heart puncture, and GFP-labeled circulating EVs were measured with liver cytokines. […] Counting of astrocyte-released EV (GFP+) from blood and liver cytokine analysis was conducted by single injection of DPTIP. […]
Compounds were given 0.5 h before IL-1β dosing. […] (C) Liver cytokine levels under different treatments as measured by qRT-PCR of RNA isolated from fresh frozen liver tissue. Samples were analyzed in triplicate. **p < 0.01 and *p < 0.05 compared to saline control; ^##p < 0.01 and ^#p < 0.05 compared to IL1-β group. (D) Neutrophil levels in brain as measured by immunohistochemistry using coronal brain sections and Ly6b antibody. (E) Quantitation of (D); **p < 0.01 compared to saline control; ^##p < 0.01 compared to IL1-β group.
Coronal brain sections (30 µm) were prepared using a cryostat microtome (Leica). […] Stereological quantitation was performed using a one-in-five series (270-µm spacing), from the rostral point of bregma +1.10 mm to the caudal point of bregma −0.58 mm as previously described.

COc1cc(-c2nc(-c3cccs3)c(-c3ccccc3)[nH]2)cc(OC)c1O [DPTIP, 2,6-Dimethoxy-4-(5-Phenyl-4-Thiophen-2-yl-1H-Imidazol-2-yl)-Phenol]
IC50 (acid sphingomyelinase): > 100 µM
remaining at 1 h, 1 μM [1]: 100%
Kp ([2]; brain and plasma, read-out: AUCbrain/AUCplasma): 0.26
AUC(0-inf) ([2]; brain): 2.6 ± 0.5 µM·h
Tmax ([2]; brain): 30 min
AUC(0-inf) ([2]; plasma): 10 ± 1 µM·h
Tmax ([2]; plasma): 30 min
effect on GFAP levels without serum starvation (Rat primary astrocytes; no serum starvation): did not change GFAP levels
effect on astrocyte activation (GFAP) in response to serum starvation (Rat primary astrocytes; with serum deprivation): prevented astrocyte activation
reduction of neutrophil migration into brain compared to IL-1β-treated animals (GFAP-GFP mice): 80 ± 23%
